Four compounds from US20170349540A1, “HISTONE DEACETYLASE INHIBITORS” (The General Hospital Corporation, priority 2014, published 2017) can be followed below.

The target of one experiment is T1, HDAC5 (Homo sapiens, UniProt Q9UQL6).
T1 construct: purchased BPS Bioscience
The experiment is described as follows: HDAC inhibition assay (Caliper EZ reader, FAM-labeled peptide substrate). In kind it is biochemical. The note with it: recombinant human HDAC, 60 min at room temperature, 2 μM substrate. On the procedure: (§1) All recombinant human HDACs were purchased from BPS Bioscience. The substrates, Broad Substrate A and Broad Substrate B (see International App. No. WO 2013/067391), were synthesized in-house. All other reagents were purchased from Sigma-Aldrich. […] Reactions were terminated by the addition of 1.5 μM of the known pan-HDAC inhibitor LBH-589 (panobinostat). […] The reactions were performed in duplicate for each sample.

The next experiment addresses T2, HDAC2 (Homo sapiens, UniProt Q92769).
T2 construct: purchased BPS Bioscience
The experiment is described as above. In kind it is biochemical. The settings on record: recombinant human HDAC, 60 min at room temperature, 2 μM substrate. On the procedure:
as §1

The target in another experiment is T3, HDAC8 (Homo sapiens, UniProt Q9BY41).
T3 construct: purchased BPS Bioscience
T3 sequence (Q9BY41 1-377): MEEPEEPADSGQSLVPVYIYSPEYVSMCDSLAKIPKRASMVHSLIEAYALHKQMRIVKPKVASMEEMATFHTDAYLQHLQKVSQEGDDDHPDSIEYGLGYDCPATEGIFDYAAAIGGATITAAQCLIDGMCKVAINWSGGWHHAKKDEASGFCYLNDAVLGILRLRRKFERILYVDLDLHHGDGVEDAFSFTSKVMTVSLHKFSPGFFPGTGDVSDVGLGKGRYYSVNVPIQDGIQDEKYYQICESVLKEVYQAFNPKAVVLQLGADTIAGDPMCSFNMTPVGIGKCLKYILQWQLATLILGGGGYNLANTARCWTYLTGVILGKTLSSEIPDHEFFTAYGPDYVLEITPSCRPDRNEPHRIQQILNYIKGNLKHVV
The experiment is described as above. It counts as biochemical. The note with it: recombinant human HDAC, 60 min at room temperature, 2 μM substrate. The protocol: as §1

The target in another experiment is T4, HDAC3 (Homo sapiens, UniProt O15379).
T4 construct: purchased BPS Bioscience
T4 sequence (O15379 whole entry): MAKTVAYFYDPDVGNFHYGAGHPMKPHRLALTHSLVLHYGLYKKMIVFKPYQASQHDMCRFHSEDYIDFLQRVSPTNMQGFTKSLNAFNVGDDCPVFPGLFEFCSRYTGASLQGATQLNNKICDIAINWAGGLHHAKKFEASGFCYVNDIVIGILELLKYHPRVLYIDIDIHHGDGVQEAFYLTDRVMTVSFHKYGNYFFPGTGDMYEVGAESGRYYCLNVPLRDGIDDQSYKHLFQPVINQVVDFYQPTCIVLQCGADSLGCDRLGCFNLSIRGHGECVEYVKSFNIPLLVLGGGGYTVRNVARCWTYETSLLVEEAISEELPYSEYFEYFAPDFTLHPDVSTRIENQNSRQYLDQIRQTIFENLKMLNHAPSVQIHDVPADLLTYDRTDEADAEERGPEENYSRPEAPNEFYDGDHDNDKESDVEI
T4 sequence (Q9Y618 395-489 partner limits assumed): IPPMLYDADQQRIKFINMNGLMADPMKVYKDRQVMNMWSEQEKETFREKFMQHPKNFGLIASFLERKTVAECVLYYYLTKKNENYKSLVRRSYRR
The experiment is described as above. It counts as biochemical. The note with it: recombinant human HDAC, 60 min at room temperature, 2 μM substrate. The protocol: as §1

The target in another experiment is T5, HDAC4 (Homo sapiens, UniProt P56524).
T5 construct: purchased BPS Bioscience
T5 sequence (P56524 whole entry): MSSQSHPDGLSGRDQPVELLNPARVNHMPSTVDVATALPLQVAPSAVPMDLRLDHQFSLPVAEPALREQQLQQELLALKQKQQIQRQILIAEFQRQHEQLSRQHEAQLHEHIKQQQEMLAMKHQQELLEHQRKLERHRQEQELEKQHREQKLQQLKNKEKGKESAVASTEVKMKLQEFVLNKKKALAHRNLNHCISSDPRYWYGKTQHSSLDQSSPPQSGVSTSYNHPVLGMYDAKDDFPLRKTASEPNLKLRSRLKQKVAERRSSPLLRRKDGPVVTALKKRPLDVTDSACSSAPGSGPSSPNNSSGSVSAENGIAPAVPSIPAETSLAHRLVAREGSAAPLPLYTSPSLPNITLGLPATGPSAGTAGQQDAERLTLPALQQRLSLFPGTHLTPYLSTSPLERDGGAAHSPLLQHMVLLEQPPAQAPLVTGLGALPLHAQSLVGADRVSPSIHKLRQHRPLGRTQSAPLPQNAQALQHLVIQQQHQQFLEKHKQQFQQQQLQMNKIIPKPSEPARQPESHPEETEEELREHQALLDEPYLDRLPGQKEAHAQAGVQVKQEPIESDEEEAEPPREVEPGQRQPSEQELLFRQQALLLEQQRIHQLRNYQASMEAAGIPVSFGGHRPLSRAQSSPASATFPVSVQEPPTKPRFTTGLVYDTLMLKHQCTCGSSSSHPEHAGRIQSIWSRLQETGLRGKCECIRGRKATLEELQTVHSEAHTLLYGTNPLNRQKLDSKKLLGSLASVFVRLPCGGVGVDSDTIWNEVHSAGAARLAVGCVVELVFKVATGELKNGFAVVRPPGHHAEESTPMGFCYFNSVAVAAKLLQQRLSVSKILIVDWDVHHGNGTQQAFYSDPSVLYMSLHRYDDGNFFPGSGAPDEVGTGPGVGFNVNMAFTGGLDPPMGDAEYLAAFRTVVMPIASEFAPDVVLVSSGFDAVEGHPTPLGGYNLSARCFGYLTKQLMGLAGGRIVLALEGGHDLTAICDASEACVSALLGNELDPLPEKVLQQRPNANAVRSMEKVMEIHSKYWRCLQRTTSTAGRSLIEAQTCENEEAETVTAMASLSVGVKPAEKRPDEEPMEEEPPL
The description is as above. The note with it: recombinant human HDAC, 60 min at room temperature, 2 μM substrate. It counts as biochemical. On the procedure: as §1

The target of the next experiment is T6, HDAC9 (Homo sapiens, UniProt Q9UKV0).
T6 construct: purchased BPS Bioscience
T6 sequence (Q9UKV0 whole entry): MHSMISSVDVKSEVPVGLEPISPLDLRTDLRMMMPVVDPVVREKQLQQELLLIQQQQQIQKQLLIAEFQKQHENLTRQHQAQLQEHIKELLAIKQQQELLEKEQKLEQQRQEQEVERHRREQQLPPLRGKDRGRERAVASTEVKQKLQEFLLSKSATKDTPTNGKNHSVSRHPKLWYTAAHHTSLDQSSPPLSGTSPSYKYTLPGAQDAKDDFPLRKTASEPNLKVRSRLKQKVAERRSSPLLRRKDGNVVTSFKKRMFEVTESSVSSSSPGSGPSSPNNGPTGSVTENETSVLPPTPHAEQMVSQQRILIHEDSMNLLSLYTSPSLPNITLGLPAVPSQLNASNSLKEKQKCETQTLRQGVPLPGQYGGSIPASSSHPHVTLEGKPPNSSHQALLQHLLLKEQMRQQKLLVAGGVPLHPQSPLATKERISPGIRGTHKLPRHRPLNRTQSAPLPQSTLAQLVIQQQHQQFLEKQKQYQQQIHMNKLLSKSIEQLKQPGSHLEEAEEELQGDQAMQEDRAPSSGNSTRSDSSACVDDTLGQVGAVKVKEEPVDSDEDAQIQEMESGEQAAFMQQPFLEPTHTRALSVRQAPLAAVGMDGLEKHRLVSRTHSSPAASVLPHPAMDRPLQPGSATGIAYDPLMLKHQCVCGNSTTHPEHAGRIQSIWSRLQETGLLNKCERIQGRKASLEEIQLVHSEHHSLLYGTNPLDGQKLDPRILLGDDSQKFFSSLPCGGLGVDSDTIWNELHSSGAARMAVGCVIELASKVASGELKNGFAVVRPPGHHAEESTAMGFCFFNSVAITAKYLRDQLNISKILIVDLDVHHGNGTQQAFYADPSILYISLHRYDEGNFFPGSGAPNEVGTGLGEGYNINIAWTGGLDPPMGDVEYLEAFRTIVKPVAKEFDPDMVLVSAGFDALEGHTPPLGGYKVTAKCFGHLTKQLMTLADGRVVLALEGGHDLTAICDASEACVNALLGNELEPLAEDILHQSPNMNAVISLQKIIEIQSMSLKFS
Described as above. It counts as biochemical. The note with it: recombinant human HDAC, 60 min at room temperature, 2 μM substrate. On the procedure: as §1

The next experiment concerns the target T7, HDAC6 (Homo sapiens, UniProt Q9UBN7).
T7 construct: purchased BPS Bioscience
T7 sequence (Q9UBN7 1-1215): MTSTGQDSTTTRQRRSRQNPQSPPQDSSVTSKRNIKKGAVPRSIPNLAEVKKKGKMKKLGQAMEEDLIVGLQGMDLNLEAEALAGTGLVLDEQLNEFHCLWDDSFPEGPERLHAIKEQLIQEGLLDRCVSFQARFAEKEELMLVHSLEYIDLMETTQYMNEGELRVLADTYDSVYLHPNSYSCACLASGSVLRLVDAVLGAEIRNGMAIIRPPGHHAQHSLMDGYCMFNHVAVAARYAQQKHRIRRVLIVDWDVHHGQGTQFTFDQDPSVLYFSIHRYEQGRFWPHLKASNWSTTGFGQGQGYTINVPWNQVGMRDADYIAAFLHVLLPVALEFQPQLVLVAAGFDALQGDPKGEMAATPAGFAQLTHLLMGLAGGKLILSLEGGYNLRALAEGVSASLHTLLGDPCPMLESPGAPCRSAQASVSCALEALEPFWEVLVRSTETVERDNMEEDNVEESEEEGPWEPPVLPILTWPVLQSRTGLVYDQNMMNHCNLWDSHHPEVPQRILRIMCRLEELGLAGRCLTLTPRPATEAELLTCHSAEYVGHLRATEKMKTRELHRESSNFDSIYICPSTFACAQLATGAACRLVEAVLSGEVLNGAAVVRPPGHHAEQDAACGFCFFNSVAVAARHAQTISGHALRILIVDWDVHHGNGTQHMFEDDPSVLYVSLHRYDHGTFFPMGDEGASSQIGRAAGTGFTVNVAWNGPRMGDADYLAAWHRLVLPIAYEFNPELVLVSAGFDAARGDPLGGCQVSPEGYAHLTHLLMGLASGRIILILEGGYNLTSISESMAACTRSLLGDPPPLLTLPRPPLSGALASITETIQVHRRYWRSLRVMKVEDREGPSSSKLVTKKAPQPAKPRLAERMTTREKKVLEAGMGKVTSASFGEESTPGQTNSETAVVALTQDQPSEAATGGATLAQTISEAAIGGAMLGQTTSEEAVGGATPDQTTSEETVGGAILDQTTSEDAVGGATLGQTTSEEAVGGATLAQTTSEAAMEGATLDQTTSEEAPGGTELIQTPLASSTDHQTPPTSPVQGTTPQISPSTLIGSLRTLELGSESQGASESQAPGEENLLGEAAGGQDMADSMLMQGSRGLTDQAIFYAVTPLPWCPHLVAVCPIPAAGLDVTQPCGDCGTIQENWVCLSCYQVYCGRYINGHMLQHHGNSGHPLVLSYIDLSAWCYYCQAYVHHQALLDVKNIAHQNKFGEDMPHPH
Described as above. The settings on record: recombinant human HDAC, 60 min at room temperature, 2 μM substrate. It counts as biochemical. The protocol: as §1

A further experiment deals with T8, HDAC1 (Homo sapiens, UniProt Q13547).
T8 construct: purchased BPS Bioscience
T8 sequence (Q13547 whole entry): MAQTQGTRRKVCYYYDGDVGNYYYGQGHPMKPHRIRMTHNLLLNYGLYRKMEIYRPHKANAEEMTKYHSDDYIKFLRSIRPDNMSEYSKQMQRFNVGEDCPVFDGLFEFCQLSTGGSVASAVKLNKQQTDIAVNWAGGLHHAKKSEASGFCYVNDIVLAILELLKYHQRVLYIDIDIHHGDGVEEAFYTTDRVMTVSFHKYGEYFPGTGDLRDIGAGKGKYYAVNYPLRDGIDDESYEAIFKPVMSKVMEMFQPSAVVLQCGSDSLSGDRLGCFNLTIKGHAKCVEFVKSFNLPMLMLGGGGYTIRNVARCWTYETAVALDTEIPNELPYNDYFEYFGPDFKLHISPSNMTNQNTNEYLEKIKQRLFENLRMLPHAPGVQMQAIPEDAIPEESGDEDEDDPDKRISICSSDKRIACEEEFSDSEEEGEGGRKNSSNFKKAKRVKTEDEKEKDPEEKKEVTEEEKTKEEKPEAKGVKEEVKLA
The description is as above. It counts as biochemical. The note with it: recombinant human HDAC, 60 min at room temperature, 2 μM substrate. On the procedure:
as §1

Another experiment addresses T9, HDAC7 (Homo sapiens, UniProt Q8WUI4).
T9 construct: purchased BPS Bioscience
T9 sequence (Q8WUI4 1-952): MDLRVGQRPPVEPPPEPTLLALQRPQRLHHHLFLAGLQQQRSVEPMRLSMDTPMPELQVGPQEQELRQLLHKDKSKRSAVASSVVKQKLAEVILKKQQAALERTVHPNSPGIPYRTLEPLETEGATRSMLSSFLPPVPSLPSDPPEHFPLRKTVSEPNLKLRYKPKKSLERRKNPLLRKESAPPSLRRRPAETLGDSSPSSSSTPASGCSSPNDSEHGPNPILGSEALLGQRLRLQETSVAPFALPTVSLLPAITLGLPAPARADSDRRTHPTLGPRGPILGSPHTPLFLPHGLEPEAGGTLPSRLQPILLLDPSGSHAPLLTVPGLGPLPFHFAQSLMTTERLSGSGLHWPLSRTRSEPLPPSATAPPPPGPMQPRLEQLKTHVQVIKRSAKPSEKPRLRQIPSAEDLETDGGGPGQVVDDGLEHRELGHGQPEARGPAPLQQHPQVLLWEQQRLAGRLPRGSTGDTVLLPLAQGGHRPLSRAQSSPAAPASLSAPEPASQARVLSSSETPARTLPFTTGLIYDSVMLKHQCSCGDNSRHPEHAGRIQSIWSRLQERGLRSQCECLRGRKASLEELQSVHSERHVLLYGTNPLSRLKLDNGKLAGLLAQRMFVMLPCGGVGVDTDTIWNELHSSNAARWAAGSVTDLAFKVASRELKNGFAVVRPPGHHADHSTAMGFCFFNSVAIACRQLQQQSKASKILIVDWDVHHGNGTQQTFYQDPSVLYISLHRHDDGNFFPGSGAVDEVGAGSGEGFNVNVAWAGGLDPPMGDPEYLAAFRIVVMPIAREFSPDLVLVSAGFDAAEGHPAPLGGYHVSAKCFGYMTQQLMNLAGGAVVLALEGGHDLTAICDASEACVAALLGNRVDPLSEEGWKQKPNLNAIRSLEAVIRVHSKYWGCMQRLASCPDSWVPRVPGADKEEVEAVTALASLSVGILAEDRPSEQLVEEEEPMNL
The experiment is described as above. The note with it: recombinant human HDAC, 60 min at room temperature, 2 μM substrate. In kind it is biochemical. The protocol:
as §1

In another experiment the test system is HDAC. Briefly: In vivo PET imaging: blocking of whole brain uptake of the radiolabeled compound of Example 3. Further details: species or system rat. The note with it: self-blocking, 5 min pretreatment with 1.0 μg-2.0 mg/kg unlabeled compound; radiotracer of Example 3. The protocol: Male Sprague-Dawley rats were utilized in pairs, anesthetized with inhalational isoflurane (Forane) at 3% in a carrier of 1.5-2 L/min medical oxygen and maintained at 2% isoflurane for the duration of the scan. The rats were arranged head-to-head in a Triumph Trimodality PET/CT/SPECT scanner (Gamma Medica, Northridge, Calif.). Rats were injected standard references or vehicle via a lateral tail vein catheterization at the start of Positron Emission Tomography (PET) acquisition. Dynamic PET acquisition lasted for 60 min and was followed by computed tomography (CT) for anatomic co-registration. PET data were reconstructed using a 3D-MLEM method resulting in a full width at half-maximum resolution of 1 mm. Reconstructed images were exported from the scanner in DICOM format along with an anatomic CT for rodent studies. These files were imported to PMOD (PMOD Technologies, Ltd.) and manually coregistered using six degrees of freedom.
Volumes of interest (VOIs) were drawn manually as spheres in brain regions guided by high resolution CT structural images and summed PET data, with a radius no less than 1 mm to minimize partial volume effects. Time-activity curves (TACs) were exported in terms of decay corrected activity per unit volume at specified time points with gradually increasing intervals. The TACs were expressed as percent injected dose per unit volume for analysis.
Summed PET images following injection with the ^11C radiolabeled (E)-3-(4-((((1r,3R,5S)-adamantan-1-ylmethyl)(methyl)amino)methyl)phenyl)-N-hydroxyacrylamide (Example 3) at baseline or after 5 minutes pretreatment with 0.5 or 2.0 mg/kg unlabeled (E)-3-(4-((((1 r,3R,5 S)-adamantan-1-ylmethyl) (methyl)amino)methyl)phenyl)-N-hydroxyacrylamide illustrate brain uptake and self-blocking, as shown in FIG. 1A. Whole-brain tracer uptake levels, normalized to uptake at 10 min, were altered by 10-40% in self-blocking experiments with 5 min pretreatment with 1.0 μg-2.0 mg/kg unlabeled (E)-3-(4-((((1r,3R,5S)-adamantan-1-ylmethyl) (methyl)amino)methyl)phenyl)-N-hydroxyacrylamide, as shown in FIGS. 1B and 1C. This quantification provides a means to measure occupancy of HDAC targets on the basis of blocked binding of the radiolabeled compound of Example 3.
Whole brain uptake of the radiotracer of Example 3 was measured 4 h after acute systemic treatment.

T1 sequence (Q9UQL6 whole entry): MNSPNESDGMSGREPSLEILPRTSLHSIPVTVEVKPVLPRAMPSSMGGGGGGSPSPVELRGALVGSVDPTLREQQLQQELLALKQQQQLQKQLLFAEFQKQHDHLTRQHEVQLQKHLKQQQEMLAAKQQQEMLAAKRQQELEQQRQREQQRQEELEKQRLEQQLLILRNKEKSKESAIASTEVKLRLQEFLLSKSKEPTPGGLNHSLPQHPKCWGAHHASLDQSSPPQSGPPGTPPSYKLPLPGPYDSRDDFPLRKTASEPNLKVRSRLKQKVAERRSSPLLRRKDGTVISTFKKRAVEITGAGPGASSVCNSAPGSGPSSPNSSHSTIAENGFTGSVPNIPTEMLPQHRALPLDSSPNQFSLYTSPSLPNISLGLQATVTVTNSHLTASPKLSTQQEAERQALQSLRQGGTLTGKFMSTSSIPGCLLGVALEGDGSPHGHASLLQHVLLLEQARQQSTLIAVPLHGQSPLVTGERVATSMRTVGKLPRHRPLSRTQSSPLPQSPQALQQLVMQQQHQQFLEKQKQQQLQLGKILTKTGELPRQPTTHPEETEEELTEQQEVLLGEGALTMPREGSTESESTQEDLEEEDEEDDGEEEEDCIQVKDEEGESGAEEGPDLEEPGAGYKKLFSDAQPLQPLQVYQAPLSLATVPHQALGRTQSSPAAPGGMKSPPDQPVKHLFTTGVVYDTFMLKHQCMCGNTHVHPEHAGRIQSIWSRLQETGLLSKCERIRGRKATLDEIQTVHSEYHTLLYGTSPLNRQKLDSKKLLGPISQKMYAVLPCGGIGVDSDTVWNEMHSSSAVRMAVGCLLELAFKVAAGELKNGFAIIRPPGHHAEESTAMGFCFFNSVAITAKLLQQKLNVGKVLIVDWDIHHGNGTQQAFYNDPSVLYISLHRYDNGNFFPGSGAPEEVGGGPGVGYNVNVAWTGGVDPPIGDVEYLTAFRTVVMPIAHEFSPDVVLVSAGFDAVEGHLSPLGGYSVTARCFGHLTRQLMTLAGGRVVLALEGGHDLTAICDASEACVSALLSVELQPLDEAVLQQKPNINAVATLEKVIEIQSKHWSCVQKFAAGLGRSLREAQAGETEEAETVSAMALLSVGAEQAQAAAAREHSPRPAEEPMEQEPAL
T2 sequence (Q92769 whole entry): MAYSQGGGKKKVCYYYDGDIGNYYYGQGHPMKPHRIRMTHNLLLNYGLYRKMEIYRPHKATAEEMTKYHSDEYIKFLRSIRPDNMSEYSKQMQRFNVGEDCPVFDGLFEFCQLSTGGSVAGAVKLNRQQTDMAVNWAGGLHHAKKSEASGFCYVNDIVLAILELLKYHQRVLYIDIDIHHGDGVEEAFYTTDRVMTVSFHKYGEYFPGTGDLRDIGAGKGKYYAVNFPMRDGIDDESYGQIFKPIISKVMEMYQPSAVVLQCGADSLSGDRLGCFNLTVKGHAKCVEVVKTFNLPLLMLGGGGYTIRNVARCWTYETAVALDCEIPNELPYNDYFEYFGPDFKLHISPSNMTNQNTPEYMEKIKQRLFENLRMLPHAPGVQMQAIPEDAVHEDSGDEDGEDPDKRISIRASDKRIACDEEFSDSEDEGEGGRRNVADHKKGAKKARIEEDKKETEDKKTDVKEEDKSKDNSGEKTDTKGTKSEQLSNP

The IC50 is the concentration at which inhibition is half-maximal. Regarding `O=C(/C=C/c1ccc(CN(CCF)CC23CC4CC(CC(C4)C2)C3)cc1)NO`, the IC50 at HDAC5 was greater than 5000 nM; on HDAC2 it was 651 nM; on HDAC8, greater than 30000 nM; at HDAC3, 470 nM; on HDAC4, greater than 12000 nM; at HDAC9, greater than 30000 nM. The IC50 is 308 nM on HDAC6, 222 nM at HDAC1 and greater than 30000 nM at HDAC7.

For the compound `O=C(/C=C/c1ccc(CNCC23CC4CC(CC(C4)C2)C3)c(F)c1)NO`, the IC50 on HDAC5 was 4310 nM; on HDAC2 it was 6.4 nM; on HDAC8 it was greater than 5000 nM; at HDAC3 it was 0.5 nM; at HDAC4, greater than 70000 nM; on HDAC9 it was greater than 50000 nM. In addition, the IC50 on HDAC6 was greater than 40000 nM; on HDAC1, 0.8 nM; on HDAC7, greater than 70000 nM.

For `CN(Cc1ccc(/C=C/C(=O)NO)cc1)CC12CC3CC(CC(C3)C1)C2` [Example 1, (E)-3-(4-((((1r,3R,5S)-adamantan-1-ylmethyl)(methyl)amino)methyl)phenyl)-N-hydroxyacrylamide], in the experiment with HDAC, the “Whole-brain tracer uptake levels, normalized to uptake at 10 min, altered by” value was 10-40%.

For `CN(Cc1ccc(/C=C/C(=O)Nc2ccccc2N)cc1)CC12CC3CC(CC(C3)C1)C2` [drawing 61], the IC50 at HDAC5 is greater than 40000 nM; at HDAC2, 602 nM; on HDAC8, greater than 40000 nM; on HDAC3, 216 nM; on HDAC6 it was greater than 10000 nM; on HDAC1, 149 nM. Also, at HDAC7, the 50% inhibitory concentration (IC50) was greater than 40000 nM.
